In this data set the test system is ApoE ko mice fed with high fat diet. From the text: 10 ApoE ko mice were fed with regular chow diet and used as negative control group. 50 ApoE ko mice were fed with high fat diet (35% kcal fat, 1% cholesterol) for 8 weeks, and then the plasma samples were collected for lipid profile measurement before the treatment. 50 ApoE ko mice were assigned into 5 groups based on the fasting overnight plasma TC and HDL level.
19 Mar. 2012 to 6 Apr. 2012: Group the mice based on the TC and HDL level and start the treatment with 3 doses of antibody APOA1 by i.p daily on the weekday (The first dose was administered by iv injection
13 Apr. 2012-14 May 2012: The treatment with antibody APOA1 was changed to i.p injection every two days (Monday, Wednesday, and Friday) per client's instruction.
Antibody products were administrated by intraperitoneal injection every two days (Monday, Wednesday, and Friday). and the positive compound was administered by p.o every day.
5.4. Body weight and blood glucose measurement: The body weight was weighed weekly during the period of treatment. The fasting overnight blood glucose was measured at the end of study by Roche glucometer.
5.5 24 h food intake measurement: 24 hours food intake for each cage was measured weekly
5.6. Plasma lipid profile measurement: About 300 ul of blood sample was collected from the orbital vein for each mouse and centrifuged at 7000 rpm for 5 min at 4° C. and the plasma lipid profile was measured by Roche Modular automatic biochemistry analyzer in DaAn Medical Laboratory
After RAAS antibody products treatment for 8 weeks, all mice were sacrificed. Measured body weight and collected blood sample for each mouse. Weighed liver weight and saved a tiny piece of liver into 4% paraformaldehyde (PFA) fixation solution for further analysis. At same time, take the photos with heart, lung, aortas and two kidneys.
Scanning the glasses slides with the Aperio ScanScope system and analyze with the image proplus software to measure the area of atherosclerotic plaque session. The results were expressed as the percentage of the total aortic surface area covered by lesions. The operation procedure of software was briefly described as follow: Converted the sys version photos into JPG version, then calibrated it and subsequently selected the red regions and then calculate the total area automatically by image proplus software.
The results were expressed as the Mean±SEM and statistically evaluated by student's t-test.

Results on 1 substance are retold here after patent US20170198027A1 (priority 2012, published 2017).

Regarding “human Apoiipoprotein AI, injection [APOA1]”, the “arteriosclerosis plaque lesion in the region of thoracic aorta (root plaque area)” value (APOA1 mid dose and low dose, not significant vs vehicle) was “trend of reducing the arteriosclerosis plaque lesion”. Besides, the “plasma total cholesterol (TC)” value (after 8 week treatment, APOA1 low dose) is “significantly lower total cholesterol level”. The “plasma TG level” value (after 8 weeks treatment) is reported as “no effect”. Also, the “fasting overnight blood glucose” value (after 8 weeks treatment vs vehicle) is “no effect”. The “ratio of liver weight/body weight” value (after 8 weeks treatment vs vehicle, RAAS antibody low dose, atorvastatin 20 mg/kg) is “reduced the ratio of liver weight/body weight significantly”. The “atherosclerosis plaque lesion area of aorta” value (after 8 weeks treatment, APOA1 low dose) is listed as “trend on reducing the plaque lesion area”. Under “after 15 doses treatment”, the “deaths in the treatment groups” value was “several mice died”. Where the note is “atorvastatin p=0.08”, the “atherosclerosis plaque lesion from the aortic root to right renal artery” value was “trend of reducing the atherosclerosis plaque lesion in a dose dependent manner”. Moreover, where the note is “low dose, after 4 weeks treatment”, the “plasma HDL” value is recorded as “significantly decrease the HDL level”. In addition, the body weight result (vs vehicle group, atorvastatin after 5 weeks treatment) was “trend on reducing body weight but didn't reach statistic difference”.
